In patent US12215140B2, “Method of stabilizing protein contained in specimen and solution for stabilizing protein contained in specimen” (EIKEN KAGAKU KABUSHIKI KAISHA, priority 2018, dated 2025):

Test system: hemoglobin-haptoglobin complex
Test: Stability of hemoglobin (as hemoglobin-haptoglobin complex) in samples preserved at 37° C. in preservation solution containing 1 unit/L haptoglobin, Hb measured by latex agglutination method (Examples 1 to 7)
Set-up: species or system human
Details: 37° C.
Method in brief: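 Hemoglobin (~300 µg/L) in 0.5% fecal suspension, or without feces, held at 37 °C for 0–21 days in 40 mmol/L HEPES pH 6.8, 0.1% BSA, 0.1% NaN3, 1 unit/L haptoglobin, with 0–100 mmol/L phenylboronic acid ± sugars. Hb quantified by latex agglutination with anti-human Hb rabbit polyclonal; recovery (%) relative to day 0.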

[1] = Feces 1, sugar 50 mmol/L + phenylboronic acid 15 mmol/L, 0 days
[2] = Feces 1, sugar 50 mmol/L + phenylboronic acid 15 mmol/L, 7 days
[3] = Feces 1, sugar 50 mmol/L + phenylboronic acid 15 mmol/L, 14 days
[4] = Feces 1, sugar 50 mmol/L + phenylboronic acid 15 mmol/L, 21 days
[5] = Feces 1, sugar 100 mmol/L + phenylboronic acid 0.5 mmol/L, 0 days
[6] = Feces 1, sugar 100 mmol/L + phenylboronic acid 0.5 mmol/L, 7 days
[7] = Feces 1, sugar 100 mmol/L + phenylboronic acid 0.5 mmol/L, 14 days
[8] = Feces 1, sugar 100 mmol/L + phenylboronic acid 15 mmol/L, 0 days
[9] = Feces 1, sugar 100 mmol/L + phenylboronic acid 15 mmol/L, 0 days (Table 7)
[10] = Feces 1, sugar 100 mmol/L + phenylboronic acid 15 mmol/L, 7 days
[11] = Feces 1, sugar 100 mmol/L + phenylboronic acid 15 mmol/L, 7 days (Table 7)
[12] = Feces 1, sugar 100 mmol/L + phenylboronic acid 15 mmol/L, 14 days
[13] = Feces 1, sugar 100 mmol/L + phenylboronic acid 15 mmol/L, 14 days (Table 7)
[14] = Feces 1, sugar 100 mmol/L + phenylboronic acid 15 mmol/L, 21 days
[15] = Feces 1, sugar 100 mmol/L + phenylboronic acid 50 mmol/L, 0 days
[16] = Feces 1, sugar 100 mmol/L + phenylboronic acid 50 mmol/L, 7 days
[17] = Feces 1, sugar 100 mmol/L + phenylboronic acid 50 mmol/L, 14 days
[18] = Feces 1, sugar 100 mmol/L, no phenylboronic acid, 0 days
[19] = Feces 1, sugar 100 mmol/L, no phenylboronic acid, 7 days
[20] = Feces 1, sugar 100 mmol/L, no phenylboronic acid, 14 days
[21] = Feces 1, sugar 100 mmol/L, no phenylboronic acid, 21 days
[22] = Feces 2, sugar 50 mmol/L + phenylboronic acid 15 mmol/L, 0 days
[23] = Feces 2, sugar 50 mmol/L + phenylboronic acid 15 mmol/L, 7 days
[24] = Feces 2, sugar 50 mmol/L + phenylboronic acid 15 mmol/L, 14 days
[25] = Feces 2, sugar 50 mmol/L + phenylboronic acid 15 mmol/L, 21 days
[26] = Feces 2, sugar 100 mmol/L + phenylboronic acid 0.5 mmol/L, 0 days
[27] = Feces 2, sugar 100 mmol/L + phenylboronic acid 0.5 mmol/L, 7 days
[28] = Feces 2, sugar 100 mmol/L + phenylboronic acid 0.5 mmol/L, 14 days
[29] = Feces 2, sugar 100 mmol/L + phenylboronic acid 15 mmol/L, 0 days
[30] = Feces 2, sugar 100 mmol/L + phenylboronic acid 15 mmol/L, 0 days (Table 7)
[31] = Feces 2, sugar 100 mmol/L + phenylboronic acid 15 mmol/L, 7 days
[32] = Feces 2, sugar 100 mmol/L + phenylboronic acid 15 mmol/L, 7 days (Table 7)
[33] = Feces 2, sugar 100 mmol/L + phenylboronic acid 15 mmol/L, 14 days
[34] = Feces 2, sugar 100 mmol/L + phenylboronic acid 15 mmol/L, 14 days (Table 7)
[35] = Feces 2, sugar 100 mmol/L + phenylboronic acid 15 mmol/L, 21 days
[36] = Feces 2, sugar 100 mmol/L + phenylboronic acid 50 mmol/L, 0 days
[37] = Feces 2, sugar 100 mmol/L + phenylboronic acid 50 mmol/L, 7 days
[38] = Feces 2, sugar 100 mmol/L + phenylboronic acid 50 mmol/L, 14 days
[39] = Feces 2, sugar 100 mmol/L, no phenylboronic acid, 0 days
[40] = Feces 2, sugar 100 mmol/L, no phenylboronic acid, 7 days
[41] = Feces 2, sugar 100 mmol/L, no phenylboronic acid, 14 days
[42] = Feces 2, sugar 100 mmol/L, no phenylboronic acid, 21 days
[43] = Feces 3, sugar 50 mmol/L + phenylboronic acid 15 mmol/L, 0 days

With `OC[C@@H](O)[C@@H](O)[C@H](O)[C@@H](O)CO` [Sorbitol, sorbitol] the Hb concentration [1] was 291 µg/L, the “Recovery ratio with respect to Hb concentration after 0 days” value [1] was 100% and the Hb concentration [2] was 300 µg/L. The “Recovery ratio with respect to Hb concentration after 0 days” value [2] was 103%, the Hb concentration [3] was 300 µg/L and the “Recovery ratio with respect to Hb concentration after 0 days” value [3] was 103%. The Hb concentration [4] was 296 µg/L, the “Recovery ratio with respect to Hb concentration after 0 days” value [4] was 102% and the Hb concentration [5] was 310 µg/L. The “Recovery ratio with respect to Hb after 0 days” value [5] was 100%, the Hb concentration [6] was 206 µg/L and the “Recovery ratio with respect to Hb after 0 days” value [6] was 66%. The Hb concentration [7] was 178 µg/L, the “Recovery ratio with respect to Hb after 0 days” value [7] was 57% and the Hb concentration [8] was 287 µg/L. The “Recovery ratio with respect to Hb concentration after 0 days” value [8] was 100%, the Hb concentration [9] was 301 µg/L and the “Recovery ratio with respect to Hb after 0 days” value [9] was 100%. For the same compound, the Hb concentration [10] was 292 µg/L, the “Recovery ratio with respect to Hb concentration after 0 days” value [10] was 102% and the Hb concentration [11] was 297 µg/L. The “Recovery ratio with respect to Hb after 0 days” value [11] was 99%, the Hb concentration [12] was 294 µg/L and the “Recovery ratio with respect to Hb concentration after 0 days” value [12] was 102%. The Hb concentration [13] was 295 µg/L, the “Recovery ratio with respect to Hb after 0 days” value [13] was 98% and the Hb concentration [14] was 290 µg/L. For the same compound, the “Recovery ratio with respect to Hb concentration after 0 days” value [14] was 101%, the Hb concentration [15] was 281 µg/L and the “Recovery ratio with respect to Hb after 0 days” value [15] was 100%. For the same compound, the Hb concentration [16] was 274 µg/L, the “Recovery ratio with respect to Hb after 0 days” value [16] was 98% and the Hb concentration [17] was 275 µg/L. For the same compound, the “Recovery ratio with respect to Hb after 0 days” value [17] was 98%, the Hb concentration [18] was 283 µg/L and the “Recovery ratio with respect to Hb concentration after 0 days” value [18] was 100%. For the same compound, the Hb concentration [19] was 143 µg/L, the “Recovery ratio with respect to Hb concentration after 0 days” value [19] was 51% and the Hb concentration [20] was 102 µg/L. The “Recovery ratio with respect to Hb concentration after 0 days” value [20] was 36%, the Hb concentration [21] was 97 µg/L and the “Recovery ratio with respect to Hb concentration after 0 days” value [21] was 34%. The Hb concentration [22] was 281 µg/L, the “Recovery ratio with respect to Hb concentration after 0 days” value [22] was 100% and the Hb concentration [23] was 280 µg/L. For the same compound, the “Recovery ratio with respect to Hb concentration after 0 days” value [23] was 100%, the Hb concentration [24] was 252 µg/L and the “Recovery ratio with respect to Hb concentration after 0 days” value [24] was 90%. For the same compound, the Hb concentration [25] was 222 µg/L, the “Recovery ratio with respect to Hb concentration after 0 days” value [25] was 79% and the Hb concentration [26] was 301 µg/L. For the same compound, the “Recovery ratio with respect to Hb after 0 days” value [26] was 100%, the Hb concentration [27] was 173 µg/L and the “Recovery ratio with respect to Hb after 0 days” value [27] was 57%. For the same compound, the Hb concentration [28] was 154 µg/L, the “Recovery ratio with respect to Hb after 0 days” value [28] was 51% and the Hb concentration [29] was 274 µg/L. The “Recovery ratio with respect to Hb concentration after 0 days” value [29] was 100%, the Hb concentration [30] was 299 µg/L and the “Recovery ratio with respect to Hb after 0 days” value [30] was 100%. For the same compound, the Hb concentration [31] was 276 µg/L, the “Recovery ratio with respect to Hb concentration after 0 days” value [31] was 101% and the Hb concentration [32] was 300 µg/L. The “Recovery ratio with respect to Hb after 0 days” value [32] was 100%, the Hb concentration [33] was 246 µg/L and the “Recovery ratio with respect to Hb concentration after 0 days” value [33] was 90%. For the same compound, the Hb concentration [34] was 298 µg/L, the “Recovery ratio with respect to Hb after 0 days” value [34] was 100% and the Hb concentration [35] was 219 µg/L. For the same compound, the “Recovery ratio with respect to Hb concentration after 0 days” value [35] was 80%, the Hb concentration [36] was 275 µg/L and the “Recovery ratio with respect to Hb after 0 days” value [36] was 100%. For the same compound, the Hb concentration [37] was 279 µg/L, the “Recovery ratio with respect to Hb after 0 days” value [37] was 101% and the Hb concentration [38] was 284 µg/L. The “Recovery ratio with respect to Hb after 0 days” value [38] was 103%, the Hb concentration [39] was 277 µg/L and the “Recovery ratio with respect to Hb concentration after 0 days” value [39] was 100%. For the same compound, the Hb concentration [40] was 113 µg/L, the “Recovery ratio with respect to Hb concentration after 0 days” value [40] was 41% and the Hb concentration [41] was 77 µg/L. The “Recovery ratio with respect to Hb concentration after 0 days” value [41] was 28%, the Hb concentration [42] was 51 µg/L and the “Recovery ratio with respect to Hb concentration after 0 days” value [42] was 18%. The Hb concentration [43] was 283 µg/L and the “Recovery ratio with respect to Hb concentration after 0 days” value [43] was 100%.
